Patent US5510459A, “Glucagon antagonists” (ZymoGenetics, Inc., priority 1992, dated 1996)
Ends that are not written are not given here.

Tests used:
[1] = target: T1, glucagon receptor (liver plasma membranes) (Rattus norvegicus, UniProt P30082); assay: Glucagon binding assay (125I-glucagon, liver plasma membranes); details: 30 minute incubation at 30° C., peptide 1.5-800 ng/ml
T1 construct: 25 μl of freshly thawed plasmamembrane containing 10-20 μg of plasma membrane protein; from tissue
Description: The ability of the synthetic peptides to inhibitglucagon binding was determined by measuring the bindingof radiolabeled glucagon in the presence of syntheticpeptide relative to the binding of radiolabeled glucagonin the absence of the synthetic peptides. The syntheticpeptides were dissolved in 10% acetic acid and lyophilizedbefore use. Glucagon was dissolved in 10% acetic acid andlyophilized in 25-μg portions for use as standards. ^125 I-glucagonwith a specific activity of 11.1 kBq/ng wasobtained from Novo Biolabs (Novo Alle, Bagsvaerd, Denmark)and stored at -18° C. Plasma membranes were prepared aspreviously described, except protein detemination wascarried out using a Bio-Rad Protein Assay (BioRad,Richmond, Calif.) according to the manufacturer's directionsusing bovine serum albumin as a standard. Milli-Q gradewater was used throughout .
The lyophilized glucagon and synthetic peptideswere dissolved in 100 μl of 0.05M HCl, left for 3 minutes. The glucagon was diluted with buffer (2.5% humanserum albumin Grade 5, Sigma Chemical Co., St. Louis, Mo.! in 0.1M HEPES, 0.15M NaCl, pH 7.4) to 0.2-200ng/ml.The synthetic peptides were diluted with the same bufferto 1.5-800 ng/ml. […] The filters were counted in a gamma counter.The binding of des-His^1 -(Ala^2,11 -Glu^21)glucagonamide wasshown to be 84%±9.3.

[2] = target: T2, glucagon receptor (rat liver membrane adenylate cyclase) (Rattus norvegicus, UniProt P30082); assay: Glucagon antagonist screening assay: adenylate cyclase reaction and cAMP assay with yeast culture broths; format: biochemical; details: no exogenous glucagon
T2 construct: A. Preparation of Rat Liver Membranes; from tissue; host or cells: rat liver (Sprague-Dawley) plasma membranes
T2 sequence (P30082 27-485): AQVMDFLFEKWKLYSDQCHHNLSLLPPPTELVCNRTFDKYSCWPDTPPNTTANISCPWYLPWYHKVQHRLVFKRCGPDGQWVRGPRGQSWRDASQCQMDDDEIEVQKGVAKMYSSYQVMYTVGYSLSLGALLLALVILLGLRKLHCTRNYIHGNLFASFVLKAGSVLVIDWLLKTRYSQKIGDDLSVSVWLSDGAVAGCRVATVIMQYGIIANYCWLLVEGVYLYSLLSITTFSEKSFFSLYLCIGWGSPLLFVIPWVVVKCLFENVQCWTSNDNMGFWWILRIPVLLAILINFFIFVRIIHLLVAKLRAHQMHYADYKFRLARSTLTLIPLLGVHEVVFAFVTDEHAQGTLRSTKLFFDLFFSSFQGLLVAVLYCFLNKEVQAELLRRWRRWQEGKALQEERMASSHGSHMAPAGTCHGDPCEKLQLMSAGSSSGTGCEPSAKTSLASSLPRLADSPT
Description: Young female Sprague-Dawley rats were used forthe preparation of liver membranes using the methodessentially described by Neville (ibid.) and modified byPohl et al. (ibid). Ten to 15 rats yielding 60-100 grams of liver were processed per batch. After the rats wereeuthanized by cervical dislocation, their livers weresurgically removed and transferred, as quickly aspossible, to an iced beaker. Scissors were used to mincethe tissue into pieces approximately 3-6 mm in size. Anyconnective tissue that was present was removed.
The minced tissue was suspended in ice cold 1 mMsodium bicarbonate at a concentration of approximately300 g/l. This suspension was processed in batches in atissue homogenizer with eight strokes of the loose pestle.The homogenate was mixed with additional ice cold 1 mMsodium bicarbonate to yield a final concentration of about40-80 g/l. […]
After centrifugation, as much of the supernatantas possible was carefully decanted and discarded, and thepellets were gently resuspended in the remainingsupernatant with three strokes of the loose pestle in aclean tissue homogenizer. […] After thorough mixing, thesucrose concentration was measured with a refractometerand adjusted to between 43.9% and 44.1% sucrose(corresponding to a refractive index between 1.4076 and1.4080) with either 69% sucrose or water. […]

[3] = target: T2, glucagon receptor (rat liver membrane adenylate cyclase); assay: Adenylate cyclase activity assay with synthetic peptide glucagon analogs (Example 6); format: biochemical; details: synthetic peptides; in the presence of 20 nm glucagon
Description: The adenylate cyclase assay was carried out byfirst adding 5 μl of sample (e.g. yeast broth) containingpotential inhibitors at micromolar concentrations to eachwell of a 96-well microtiter plate. […] Fifty microliters of the A+Bsolution was added to each "no glucagon" control well.Glucagon was added from the "G" solution to the remainingA+B solution to a concentration of 1×10^-8 M (thisresults in a final assay concentration of 5×10^-9).Fifty microliters of the A+B+glucagon solution was addedto each well, excluding the "no glucagon" controls. Themembrane preparation was diluted to approximately 2 mg/mlprotein with water. The reaction was started by theaddition of 45 μl of diluted membrane to each well, inorder. The assays were incubated for 12 minutes at roomtemperature, and were stopped by the addition of 100 μl ofStop Mix to each well in the same order that the dilutedmembrane was added. The assay mixtures were clarified bycentrifugation, and the assays were stored at 4° C.
Cyclic AMP concentrations were determined usingan Amersham Scintillation Proximity Assay Kit (Amersham,Arlington Heights, Ill.). Briefly, 10 μl from eachadenylate cyclase reaction was added to individual betaplate wells. Each sample was diluted with 65 μl of 50 mM Na Acetate. Cyclic AMP standards were prepared at 0.0,1.6 and 6.4×10^-9 M or may be prepared from the"non-standards" supplied with Amersham kit.Triplicate standards of 75 μl of each standard were addedto individual beta plate wells. Nonspecific binding (NSB)controls were prepared by adding 150 μl of 50 mM NaAcetate to triplicate beta plate wells. […] Seventy-fivemicroliters of diluted anti-rabbit SPA reagent was thenadded to each well, and the plates were sealed andincubated, with shaking, overnight at room temperature.The plates were counted for one minute per sample in abeta-plate counter. […] The percent response for thestandards and samples was determined using the formula: […]

T1 sequence (P30082 27-485): as above

Compound	inhibition coefficient (I/A50): ratio of inhibitor to agonist concentration wherein the response is reduced to one-half [3]	also measured
AQGTFTSDYAKYLDSRRAQEFVQWLMNT-NH2 [des-His^1 -(Ala^2,11 -Glu^21)glucagon amide]		binding (inhibition of radiolabeled glucagon binding) [1]: 84%±9.3
glucagon [ZB210]		stimulation of adenylate cyclase activity by culture broth in the absence of exogenous glucagon [2]: stimulation of adenylate cyclase
CSCC[C@H](NC(=O)[C@H](CC(C)C)NC(=O)[C@H](Cc1c[nH]c2ccccc12)NC(=O)[C@H](CCC(N)=O)NC(=O)[C@@H](NC(=O)[C@H](Cc1ccccc1)NC(=O)[C@H](CC(=O)O)NC(=O)[C@H](CCC(N)=O)NC(=O)[C@H](C)NC(=O)[C@H](CCCNC(=N)N)NC(=O)[C@H](CCCNC(=N)N)NC(=O)[C@H](CO)NC(=O)[C@H](CC(=O)O)NC(=O)[C@H](CC(C)C)NC(=O)[C@H](Cc1ccc(O)cc1)NC(=O)[C@H](CCCCN)NC(=O)[C@H](CO)NC(=O)[C@H](Cc1ccc(O)cc1)NC(=O)[C@H](CC(=O)O)NC(=O)[C@H](CO)NC(=O)[C@@H](NC(=O)[C@H](Cc1ccccc1)NC(=O)[C@@H](NC(=O)CNC(=O)[C@H](CCC(N)=O)NC(=O)[C@@H](N)CO)[C@@H](C)O)[C@@H](C)O)C(C)C)C(=O)N[C@@H](CC(N)=O)C(=O)N[C@@H](CO)C(=O)O [F73, des-His^1 - Ser^29 !glucagon]	30	
DAQGTFISDYSKYLDSRRAQDFVQWLMNT [BB65, Asp^1 -Ala^2 -Ile^7 !glucagon]	25	
SQSTFTSDYSKYLDSRRAQDFVQWLMNT [G56, des-His^1 - Ser^4 !glucagon]	25	
